“Also recorded” adds a separate entry of the source. Where two headings read alike, the source gives them in different places.
Columns and labels:
[1] = target: T1, mTRPV1 (Mus musculus, UniProt Q704Y3); type: cell-based
T1 construct: expressed in transfected cells; host or cells: HEK293T
Method: (§1) Thus, electrophysiological tests on transient transfected TRPV1 were performed. […] To our knowledge, HEK293T cells have been reported to endogenously express acid-sensing ion channels (ASICs).
(§2) All patch clamp recordings were carried out at temperature 20 °C using an EPC-10 amplifier (HEKA Electronik, Lambrecht, Germany) according to the previous report. Recording pipettes were made from borosilicate glass capillary tubing, and their resistances were 3–5 MΩ when filled with internal solution. For mKv1.1 and mKv1.3 current recordings, the cells were held at −80 mV for 5 min after the whole-cell construction was established. All of the potassium current traces were elicited by a 300-ms depolarizing potential of 0 mV from a holding potential of −80 mV. The standard pipette solution contained (in mM): 140 KF, 4 MgCl2, 5 ATP-Na, 1 EGTA, and 10 HEPES, pH 7.3. The standard bath solution contained (in mM): 137 NaCl, 5.9 KCl, 2.2 CaCl2, 1.2 MgCl2, 14 glucose, and 10 HEPES, pH 7.3. For mice TRPV1 channel recordings, the pipette and bathing solution contained (in mM): 130 NaCl, 0.2 EDTA, and 3 HEPES, pH 7.2.
(§3) Experimental data of electrophysiological recordings were acquired and analyzed by using the Pulse program and Igor Pro. The data obtained in experiments involving animals were analyzed by GraphPad Prism 5 (GraphPad Software, Inc., San Diego, CA, USA). All of the data points are shown as the means ± S.E. n is presented as the number of experiments. Statistical analysis was carried out by Student’s t test, and * indicated a significant difference (p < 0.01).

[2] = test system: TRPV1; settings: cited from earlier work
[3] = test system: DRG neurons of WT mice; type: cell-based, mouse; settings: 10 µM; DRG neurons 20 µm ≤ cell ≤ 35 µm; 20 °C
Method: (§4) DRG neurons from WT or TRPV1 KO mice were acutely dissociated and maintained in short-term primary culture as previously described. DRGs were incubated in 5% CO2/95% air at 37 °C for 1–4 h prior to patch-clamp experiments. HEK293T cells were used for mKv1.1 or mKv1.3 expression. Cells were grown under standard tissue culture conditions (5% CO2, 37 °C) in DMEM supplemented with 10% fetal bovine serum. Cells were transfected with DNA mixture (channel constructs and a green fluorescent protein (GFP) reporter plasmid) using lipofectamine 2000 transfection reagent (Invitrogen, Carlsbad, CA, USA) following the manufacturer’s instructions and used for electrophysiology 24–48 h after transfection. Cells with GFP fluorescence were selected for patch-clamp recordings […] after transfection.
as §2
(§5) Experimental data of electrophysiological recordings were acquired and analyzed by using the Pulse program and Igor Pro. The data obtained in experiments involving animals were analyzed by GraphPad Prism 5 (GraphPad Software, Inc., San Diego, CA, USA). All of the data points are shown as the means ± S.E. n is presented as the number of experiments. […]

[4] = test system: DRG neurons of TRPV1 KO mice; type: cell-based, mouse
Method: as §4, §2, §5

[5] = test system: native HEK293T cells; type: cell-based; settings: negative for TRPV1, 20 °C, endogenous ASICs
Method: as §1, §2, §3

[6] = test system: WT mice; type: in vivo, C57BL/6J; settings: 10 μL intraplantar, left hind paw, 30 min recording, n = 10; for pain behavior (duration of paw licking/biting): 500 µM, vs saline; for pain behavior (paw licking), dose-response: different doses
Method: (§6) Mice, C57BL/6J, were used as wild type (WT) in these experiments. TRPV1-KO mice were purchased from Model Animal Research Center of Nanjing University, China. All the experiments using animals were carried out in accordance with recommendations in the Guide for the Care and Use of Laboratory Animals of Kunming Institute of Zoology, Chinese Academy of Sciences. Experimental protocols using animals in this work were approved by the Institutional Animal Care and Use Committees at Kunming Institute of Zoology, Chinese Academy of Sciences (2014-204). All efforts were made to reduce the number of animals used and to minimize the suffering of animals.
(§7) Control mice were injected with the same volume of saline. Immediately after injection, the time of paw licking was recorded by digital video camera for 30 min.
as §3

[7] = test system: TRPV1 KO mice; type: in vivo; settings: 500 µM, 10 μL intraplantar, left hind paw; 30 min recording; n = 10; vs saline
Method: as §6, §7, §3

[8] = test system: Kv1.1; set-up: method as in PMID 11173083, PMID 10565809; settings: ref [37],[38]; cited from earlier work
[9] = test system: Kv1.3; set-up: method as in PMID 11173083, PMID 10565809; settings: ref [37],[38]; cited from earlier work

T1 sequence (Q704Y3 whole entry): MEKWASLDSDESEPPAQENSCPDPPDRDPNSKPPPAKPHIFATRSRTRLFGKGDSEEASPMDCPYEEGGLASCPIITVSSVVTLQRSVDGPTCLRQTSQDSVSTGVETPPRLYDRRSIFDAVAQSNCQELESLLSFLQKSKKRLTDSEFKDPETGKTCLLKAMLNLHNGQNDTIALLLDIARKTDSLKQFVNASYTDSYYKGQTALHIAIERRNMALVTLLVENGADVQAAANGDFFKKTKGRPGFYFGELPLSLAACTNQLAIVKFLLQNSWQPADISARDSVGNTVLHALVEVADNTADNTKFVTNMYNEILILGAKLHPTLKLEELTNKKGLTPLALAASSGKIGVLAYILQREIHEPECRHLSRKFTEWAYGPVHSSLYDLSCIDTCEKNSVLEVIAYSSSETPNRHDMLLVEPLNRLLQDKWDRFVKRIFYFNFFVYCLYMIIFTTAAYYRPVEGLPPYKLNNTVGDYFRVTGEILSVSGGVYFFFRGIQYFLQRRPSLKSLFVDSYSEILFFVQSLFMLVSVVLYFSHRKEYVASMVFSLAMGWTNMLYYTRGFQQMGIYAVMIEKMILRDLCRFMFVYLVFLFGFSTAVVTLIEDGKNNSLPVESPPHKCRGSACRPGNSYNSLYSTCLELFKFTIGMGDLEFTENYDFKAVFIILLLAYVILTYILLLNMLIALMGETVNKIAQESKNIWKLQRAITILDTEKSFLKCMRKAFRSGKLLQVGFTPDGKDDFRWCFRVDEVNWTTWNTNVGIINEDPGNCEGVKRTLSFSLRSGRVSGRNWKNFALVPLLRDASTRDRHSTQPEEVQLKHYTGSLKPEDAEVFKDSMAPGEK

Compound	activation of TRPV1 (comparator agonists) ([1]; HEK293T expressing mTRPV1, concentration not given, 20 °C)	agonism on TRPV1 [2]	evoked currents on DRG neurons (WT) [3]	normalized evoked currents, TRPV1 KO compared with WT DRG neurons [4]	evoked currents on DRG neurons (TRPV1 KO) ([4]; 10 µM, DRG neurons 20 µm ≤ cell ≤ 35 µm, 20 °C)	evoked currents in native HEK293T cells, ramp method [5]	activation of TRPV1 (comparator agonists) [1]	evoked currents in TRPV1-expressed HEK293T cells, ramp method [1]	pain behavior (duration of paw licking/biting) [6]	pain behavior (paw licking), dose-response [6]	pain behavior (duration of paw licking/biting) [7]	inhibition of Kv1.1 [8]	pain behavior (paw licking), dose-response ([6]; listed as Kaliotoxin)	inhibition of Kv1.3 [9]
NCCOB(c1ccccc1)c1ccccc1 [2APB]	potently activated TRPV1	–	–	–	–	–	–	–	–	–	–	–	–	–
COc1cc(CNC(=O)CCCC/C=C/C(C)C)ccc1O [capsaicin]	–	well-known agonist of TRPV1	effectively evoked the currents in DRG neurons of WT; also recorded: evoked the currents on DRG sensory neurons of WT mice	significantly higher in WT than TRPV1 KO mice; also recorded: significantly lower in TRPV1 KO mice than in WT mice	not TRPV1 KO mice; also recorded: did not evoke currents	did not evoke the currents	potently activated TRPV1	evoked the currents in HEK293T cells with over-expressed TRPV1 channels	induced pain in WT mice	induced acute pain in a dose dependent manner	–	–	–	–
kaliotoxin	–	–	–	–	–	–	–	–	unable to induce pain	did not induce pain	only crude venom induced pain	potent inhibitor of Kv1.1 and Kv1.3	showed no significant pain behavior	potent inhibitor of Kv1.1 and Kv1.3

Reference: publication PMC4591660 (Toxins, 2015)
